Test results reported in patent US9309198B2, “N-[3-(2-carboxyethyl)phenyl]piperidin-1-ylacetamide derivatives and use thereof as activators of soluble guanylate cyclase” (Bayer Pharma Aktiengesellschaft, priority 2012, dated 2016).
Where a name gives a salt, the structure may show the parent alone.

Target: T1, recombinant guanylate cyclase reporter cell line (sGC, CHO reporter cell) (Rattus norvegicus, UniProt P20595)
T1 construct: expressed in transfected cells; host or cells: CHO reporter cell line
T1 sequence (P20595 1-619): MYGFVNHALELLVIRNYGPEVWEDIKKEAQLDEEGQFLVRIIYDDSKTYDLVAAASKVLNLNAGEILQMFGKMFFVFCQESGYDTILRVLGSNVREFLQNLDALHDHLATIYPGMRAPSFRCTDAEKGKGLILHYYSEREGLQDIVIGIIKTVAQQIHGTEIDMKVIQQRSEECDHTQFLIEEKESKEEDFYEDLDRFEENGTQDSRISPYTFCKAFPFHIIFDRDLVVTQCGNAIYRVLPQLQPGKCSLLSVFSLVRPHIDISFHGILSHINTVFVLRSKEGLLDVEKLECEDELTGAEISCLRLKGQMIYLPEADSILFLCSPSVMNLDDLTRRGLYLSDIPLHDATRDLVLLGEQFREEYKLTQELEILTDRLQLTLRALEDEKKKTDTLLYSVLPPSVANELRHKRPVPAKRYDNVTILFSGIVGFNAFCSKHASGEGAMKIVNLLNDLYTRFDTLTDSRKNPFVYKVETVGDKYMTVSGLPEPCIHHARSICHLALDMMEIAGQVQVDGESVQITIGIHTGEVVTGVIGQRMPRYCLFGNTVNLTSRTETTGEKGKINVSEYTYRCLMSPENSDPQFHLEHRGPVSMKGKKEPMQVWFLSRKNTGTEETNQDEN
T1 sequence (P19686 1-690 partner): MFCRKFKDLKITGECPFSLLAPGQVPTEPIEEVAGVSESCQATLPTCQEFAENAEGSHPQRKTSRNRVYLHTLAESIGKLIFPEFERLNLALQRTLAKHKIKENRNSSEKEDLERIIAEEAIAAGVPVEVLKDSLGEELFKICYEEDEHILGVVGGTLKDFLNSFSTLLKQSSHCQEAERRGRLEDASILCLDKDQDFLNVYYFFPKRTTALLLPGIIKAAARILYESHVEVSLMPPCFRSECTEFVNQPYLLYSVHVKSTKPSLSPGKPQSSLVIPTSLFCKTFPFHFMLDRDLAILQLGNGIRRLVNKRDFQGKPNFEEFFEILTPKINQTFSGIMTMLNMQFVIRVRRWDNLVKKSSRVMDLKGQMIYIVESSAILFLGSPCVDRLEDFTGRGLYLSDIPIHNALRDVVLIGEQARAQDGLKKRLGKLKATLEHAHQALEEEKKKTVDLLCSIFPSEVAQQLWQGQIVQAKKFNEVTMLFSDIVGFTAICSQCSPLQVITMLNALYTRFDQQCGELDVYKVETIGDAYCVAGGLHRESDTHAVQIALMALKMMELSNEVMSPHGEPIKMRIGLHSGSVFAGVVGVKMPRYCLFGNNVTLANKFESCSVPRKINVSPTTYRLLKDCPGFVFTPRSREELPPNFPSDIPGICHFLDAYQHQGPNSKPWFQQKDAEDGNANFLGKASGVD
Test: Effect on a recombinant guanylate cyclase reporter cell line (CHO reporter cell)
Type: cell-based
Method: B-2. Effect on a Recombinant Guanylate Cyclase Reporter Cell Line The cellular activity of the compounds according to the invention is determined using a recombinant guanylate cyclase reporter cell line, as described in F. Wunder et al., Anal. Biochem. 339, 104-112 (2005).

In order of falling “MEC (minimum effective concentration), sGC-activating activity in the CHO reporter cell in vitro” value:
1. COC1CCN(C(C(=O)Nc2cc(CC3(C(=O)O)CC3)ccc2F)C2CCCC2)CC1 (racemic) [Example 52, rac-1-(3-{[Cyclopentyl(4-methoxypiperidin-1-yl)acetyl]amino}-4-fluorobenzyl)cyclopropanecarboxylic acid trifluoroacetate]  3000 nM
2. CCC1CCN([C@H](C(=O)Nc2cc(CCC(=O)O)ccc2F)[C@H](C)C(F)(F)F)CC1 (single isomer, unassigned) [Example 40]  1000 nM
3. CCC1CCN([C@H](C(=O)Nc2cc(CCC(=O)O)ccc2Cl)[C@H](C)C(F)(F)F)CC1 (single isomer, unassigned) [Example 44]  1000 nM
4. C[C@H](Cc1ccc(F)c(NC(=O)[C@@H]([C@@H](C)C(F)(F)F)N2CCC3(CC2)CC3)c1)C(=O)O [Example 33]  300 nM
5. CC1CCN([C@@H](C(=O)Nc2cc(C[C@@H](C)C(=O)O)ccc2F)[C@@H](C)C(F)(F)F)CC1 [Example 30]  300 nM
6. CCC1CCN([C@H](C(=O)Nc2cc(CC3(C(=O)O)CC3)ccc2F)[C@H](C)C(F)(F)F)CC1 (single isomer, unassigned) [Example 38]  300 nM
7. CC1CCN([C@H](C(=O)Nc2cc(CCC(=O)O)ccc2Cl)[C@H](C)C(F)(F)F)CC1 (single isomer, unassigned) [Example 42]  300 nM
8. C[C@H]([C@H](C(=O)Nc1cc(CCC(=O)O)ccc1F)N1CCC(c2ccccc2)CC1)C(F)(F)F [Example 22]  300 nM
9. C[C@H]([C@H](C(=O)Nc1cc(CCC(=O)O)ccc1F)N1CCC(C(F)(F)F)CC1)C(F)(F)F [Example 24]  100 nM
10. CC1CCN([C@@H](C(=O)Nc2cc(C[C@@H](C)C(=O)O)ccc2Cl)[C@@H](C)C(F)(F)F)CC1 [Example 31]  100 nM
11. CC1CCN(C(C(=O)Nc2cc(CCC(=O)O)ccc2F)C(C)C(F)(F)F)CC1 (single isomer, unassigned) [Example 6, 3-(4-fluoro-3-{[4,4,4-trifluoro-3-methyl-2-(4-methylpiperidin-1-yl)butanoyl]amino}phenyl)propanoic acid]  60 nM
12. CC1CCN([C@@H](C(=O)Nc2cc(CCC(=O)O)ccc2F)[C@@H](C)C(F)(F)F)CC1 [Example 7]  60 nM
13. C[C@H]([C@H](C(=O)Nc1cc(CCC(=O)O)ccc1F)N1CCC2(CC1)CC2)C(F)(F)F [Example 16]  50 nM
14. CC1CCN([C@@H](C(=O)Nc2cc(C[C@H](C)C(=O)O)ccc2F)[C@@H](C)C(F)(F)F)CC1 [Example 32]  30 nM
15. CC(C(C(=O)Nc1cc(CC2(C(=O)O)CC2)ccc1F)N1CCCCC1)C(F)(F)F (single isomer, unassigned; (+)) [Example 35, (+)-1-(4-Fluoro-3-{[4,4,4-trifluoro-3-methyl-2-(piperidin-1-yl)butanoyl]amino}benzyl)cyclopropanecarboxylic acid]  30 nM
16. CCC1CCN(C(C(=O)Nc2cc(CCC(=O)O)ccc2Cl)C(C)C(F)(F)F)CC1 (centres unmarked) [Example 12]  30 nM
17. C[C@H](Cc1ccc(Cl)c(NC(=O)[C@@H]([C@@H](C)C(F)(F)F)N2CCC3(CC2)CC3)c1)C(=O)O [Example 29]  30 nM
18. CC1CCN(C(C(=O)Nc2cc(CCC(=O)O)ccc2Cl)C(C)C(F)(F)F)CC1 (single isomer, unassigned) [Example 13, 3-(4-chloro-3-{[4,4,4-trifluoro-3-methyl-2-(4-methylpiperidin-1-yl)butanoyl]amino}phenyl)propanoic acid]  30 nM
19. CCC1CCN(C(C(=O)Nc2cc(CCC(=O)O)ccc2F)C(C)C(F)(F)F)CC1 (centres unmarked) [Example 10]  30 nM
20. CC1CCN(C(C(=O)Nc2cc(CCC(=O)O)ccc2F)C(C)C(F)(F)F)CC1 (centres unmarked) [Example 5]  30 nM
21. CC(C(C(=O)Nc1cc(CCC(=O)O)ccc1Cl)N1CCC(C(F)(F)F)CC1)C(F)(F)F (centres unmarked) [Example 14]  30 nM
22. C[C@H]([C@H](C(=O)Nc1cc(C[C@H](C)C(=O)O)ccc1F)N1CCC2(CC1)CC2)C(F)(F)F [Example 28]  20 nM
23. CC1CCN(C(C(=O)Nc2cc(CCC(=O)O)ccc2Cl)C(C)C(F)(F)F)CC1 (racemic) [Example 1, 3-(4-Chloro-3-{[4,4,4-trifluoro-3-methyl-2-(4-methylpiperidin-1-yl)butanoyl]amino}phenyl)propanoic acid]  20 nM
24. CC(C(C(=O)Nc1cc(CC2(C(=O)O)CC2)ccc1F)N1CCCCC1)C(F)(F)F (single isomer, unassigned) [Example 2, 1-(4-fluoro-3-{[4,4,4-trifluoro-3-methyl-2-(piperidin-1-yl)butanoyl]amino}benzyl)cyclopropanecarboxylic acid]  20 nM
25. CCC1CCN(C(C(=O)Nc2cc(CCC(=O)O)ccc2F)C(C)C(F)(F)F)CC1 (single isomer, unassigned) [Example 9, 3-(3-{[2-(4-ethylpiperidin-1-yl)-4,4,4-trifluoro-3-methylbutanoyl]amino}-4-fluorophenyl)propanoic acid]  10 nM
26. CC(C(C(=O)Nc1cc(CCC(=O)O)ccc1F)N1CCC2(CC1)CC2)C(F)(F)F (centres unmarked) [Example 15]  10 nM
27. CCC1CCN([C@@H](C(=O)Nc2cc(CCC(=O)O)ccc2F)[C@@H](C)C(F)(F)F)CC1 (single isomer, unassigned) [Example 41]  10 nM
28. C[C@H]([C@H](C(=O)Nc1cc([C@@H](C)CC(=O)O)ccc1Cl)N1CCC2(CC1)CC2)C(F)(F)F (single isomer, unassigned) [Example 50]  10 nM
29. CC1CCN([C@@H](C(=O)Nc2cc(CCC(=O)O)ccc2Cl)[C@@H](C)C(F)(F)F)CC1 (single isomer, unassigned) [Example 43]  10 nM
30. CC1CCN(C(C(=O)Nc2cc(CC3(C(=O)O)CC3)ccc2F)C(C)C(F)(F)F)CC1 (single isomer, unassigned) [Example 4, 1-(4-fluoro-3-{[4,4,4-trifluoro-3-methyl-2-(4-methylpiperidin-1-yl)butanoyl]amino}benzyl)cyclopropanecarboxylic acid]  5 nM
31. CC1CCN([C@@H](C(=O)Nc2cc([C@@H](C)CC(=O)O)ccc2Cl)[C@@H](C)C(F)(F)F)CC1 (single isomer, unassigned) [Example 49]  3 nM
32. CCC1CCN([C@@H](C(=O)Nc2cc(CCC(=O)O)ccc2Cl)[C@@H](C)C(F)(F)F)CC1 (single isomer, unassigned) [Example 45]  3 nM
